Key:
[1] = test system: xenotransplantation 4T1 tumor model; assay: In vivo experiment of breast cancer cells, lenalidomide and lapatinib nano drug carrier systems; design: species or system BALB/c mice; settings: 4 mg/kg via caudal veins, once every two days, 5 times; normal saline as control
Protocol: The anti-tumor effect of nanoparticles in vivo is based on investigation of a xenotransplantation 4T1 tumor model established in the BALB/c mice. Each of groups represents normal saline (Group I), free lenalidomide (Group II), lenalidomide-Py-PEG-HP (Group III), […] lenalidomide-Mal-PEG-HP (Group IV), free lapatinib (Group V), lapatinib-Py-PEG-HP (Group VI) and lapatinib-Mal-PEG-HP (Group VII) respectively, wherein they are administrated via caudal veins at a dosage of 4 mg/kg, once every two days, with a total of 5 times. As shown in the diagram below, the tumor development is detected on the second day after administration.

[2] = test system: 5T33 multiple myeloma cells; assay: In vivo experiment of multiple myeloma; design: species or system mice
Protocol: Thirty 6-week-old mice are divided into three groups, which are administrated with free lenalidomide (Group I), lenalidomide-Py-PEG-HP (Group II) and lenalidomide-Mal-PEG-HP (Group III) respectively. Male and female animals in each group are halved, and there is no statistically significant difference in body weight among animals in each group. The dosage of free lenalidomide group is 0.1 ml/kg body weight/day, and the dosage of lenalidomide-Py-PEG-HP group and lenalidomide-Mal-PEG-HP group is 20 mg/kg (body weight/day).
One week after injection of 1,000,000 5T33 multiple myeloma cells into the tail veins of mice, drugs are administered subcutaneously according to the above scheme, for three times a week. During the administration period, the animals are weighed every day, and the dosage on that day is determined according to the weight, and the animals are continuously administered until death of the mice. The venous blood of mice is collected and stored every week, and the time of death of mice is recorded.
According to the statistical test, there is significant difference in the survival time of mice when free lenalidomide group is compared with heparin nano drug carrier system (P<0.05), as shown in Table 1. There is significant difference in the tumor load in serum of mice when the free lenalidomide group is compared with heparin nano drug carrier system (P<0.05), as shown in Table 2.

[3] = test system: 4T1 breast cancer xenograft tumors; assay: In vivo experiment of breast cancer cells, daunorubicin nano drug carrier systems; settings: 3 mg/kg via caudal veins, once every three days, 4 times; 4T1 in BALB/c mice
Protocol: Anti-tumor effects of nanoparticles in vivo are studied in BALB/c mice with 4T1 breast cancer xenograft tumors. Free daunorubicin (Group I), daunorubicin-Py-PEG-HP (Group II) and daunorubicin-Mal-PEG-HP (Group III) are administered via caudal veins at a dose of 3 mg/kg, for once every three days and in total 4 times, with the free daunorubicin group (Group I) as the control.

[4] = test system: acute promyelocytic leukemia (HL-60) cells; assay: Uptake experiment of leukemia cells; format: cell-based; settings: 1×10^5/ml
Protocol: An uptake experiment of free daunorubicin, daunorubicin-Py-PEG-HP and daunorubicin-Mal-PEG-HP with acute promyelocytic leukemia (HL-60) cells: the concentration of HL-60 cells is adjusted to 1×10^5/ml, and the cells are added into a 24 -well plate with 1 ml per well; a certain concentration of pure DNR solution and a certain concentration of DNR-NP suspension are added into a culture plate, and cultured for a certain time, then the cells are taken out at five time points (30 min, 60 min, 90 min, 120 min and 180 min) respectively; centrifugation is performed at 4° C. under 1000 rpm for 5 min, and the cells are collected, and then washed twice using a RPM11640 medium added with serum; the cells are lysed with 1.5 ml of 50 μg/ml protease K and a 1% SDS solution, with continuous shaking performed at 37° C. for 12 hours, and a cell extract is collected; and the drug content in the cells is calculated by a fluorescence intensity standard curve.

Row | SMILES | anti-tumor effect (tumor development) [1] | Average survival days of mice after drug injection ([2]; 5T33 mice, subcutaneous, three times a week, free lenalidomide 0.1 ml/kg body weight/day, conjugates 20 mg/kg) | Average tumor load in serum of mice after drug injection ([2]; 1 day, mouse LGg2b concentration) | Average tumor load in serum of mice after drug injection ([2]; 8 days) | Average tumor load in serum of mice after drug injection ([2]; 15 days) | Average tumor load in serum of mice after drug injection ([2]; 22 days) | Average tumor load in serum of mice after drug injection ([2]; 29 days) | anti-tumor effect (tumor volume) [3] | uptake efficiency [4]
1 | Nc1cccc2c1CN(C1CCC(=O)NC1=O)C2=O (stereo not shown) [free lenalidomide, lenalidomide] | have the anti-tumor activity | 35 days | 125.3 µg/mL | 206.5 µg/mL | 335.2 µg/mL | 611.4 µg/mL | 864.1 µg/mL | – | –
2 | COc1cccc2c1C(=O)c1c(O)c3c(c(O)c1C2=O)C[C@@](O)(C(C)=O)C[C@@H]3O[C@H]1C[C@H](N)[C@H](O)[C@H](C)O1 [free daunorubicin, daunorubicin] | – | – | – | – | – | – | – | insignificant anti-tumor activity | 16%
3 | CS(=O)(=O)CCNCc1ccc(-c2ccc3ncnc(Nc4ccc(OCc5cccc(F)c5)c(Cl)c4)c3c2)o1 [free lapatinib, lapatinib] | have the anti-tumor activity | – | – | – | – | – | – | – | –

— patent US20220323591A1, “HEPARIN NANO DRUG CARRIER SYSTEM LOADED WITH AMINO ANTI-TUMOR DRUG AND PREPARATION METHOD THEREOF” (NANJING KING-FRIEND BIOCHEMICAL PHARMACEUTICAL CO., LTD., priority 2020, published 2022)
